The record followed here is patent US9938335B2, “Glucagon and GLP-1 co-agonist compounds” (Eli Lilly and Company, priority 2015, dated 2018).

The structures appear in SMILES notation. Marks after values point to notes of the source that are not given here.

For one test, the target named is T1, rat GLP-1-R (Rattus norvegicus, UniProt P32301).
T1 construct: stimulating cAMP production at the endogenous GLP-1 receptors; endogenous in cells; host or cells: INS1 832-3 rat insulinoma cells
T1 sequence (P32301 22-463): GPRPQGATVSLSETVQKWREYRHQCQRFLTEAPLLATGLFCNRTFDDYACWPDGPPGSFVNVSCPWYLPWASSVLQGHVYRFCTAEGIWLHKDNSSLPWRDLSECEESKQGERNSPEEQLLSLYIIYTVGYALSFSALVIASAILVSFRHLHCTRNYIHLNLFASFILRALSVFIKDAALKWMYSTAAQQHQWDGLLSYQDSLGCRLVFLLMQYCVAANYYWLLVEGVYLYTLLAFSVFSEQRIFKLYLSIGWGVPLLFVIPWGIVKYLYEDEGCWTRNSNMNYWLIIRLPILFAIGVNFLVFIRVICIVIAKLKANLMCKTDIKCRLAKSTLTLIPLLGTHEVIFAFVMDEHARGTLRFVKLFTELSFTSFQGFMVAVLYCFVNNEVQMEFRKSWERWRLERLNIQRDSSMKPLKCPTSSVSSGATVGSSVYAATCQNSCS
Briefly: Functional activation of the rat GLP-1-R in insulinoma cell line INS1 832-3 (cAMP). The class given is cell-based. As to conditions: for EC50 / cAMP production: INS1 832-3 cells; for EC50: cAMP, 30 minutes; for cAMP production: data not shown; for Emax: INS1, percent of maximal response with native GLP-1 peptide at 300 nM. A general note: Changes in cAMP serve as a functional read-out for many G protein-coupled receptors.

In a further test the test system is DIO mice (C57BL/6). The experiment in a line: Oral Glucose Tolerance Test (OGTT) in DIO mice. Type of test: in vivo, mouse. As to conditions: for Glucose AUC (% of vehicle): male DIO mice, OGTT (2 g/kg) 16 hours post injection. Here is the method:
Diet-induced obese (DIO) mouse model is a model of insulin resistance. Five to six months old male DIO mice (C57BL/6) from Taconic Biosciences are used in this study. Animals are individually housed in a temperature-controlled (24° C.) facility with a 12 hour light/dark cycle (lights on 06:00), and free access to food and water. The acclimation period to the facility is two weeks. The day before the study, animals are randomized into groups based on their body weight. That same afternoon, animals are fasted in clean cages and dosed with vehicle (40 mM Tris-HCl, pH 8.0) or test articles by subcutaneous injection. The following morning, 16 hours post the peptide injection, fasting body weights are obtained to calculate glucose doses. Blood samples are taken to measure time zero glucose. Animals are then given an oral gavage of glucose (2 g/kg). Two glucose readings via glucometers were obtained at 15, 30, 60 and 120 minutes post oral glucose. The average of two glucose readings is reported at each time point and an area under the curve is calculated. Statistics were analyzed using ANOVA with Dunnett's comparison by JMP 6; significance is denoted at p≤0.05 vs. vehicle.

Test [1] concerns STZ-treated DIO mice (C57BL/6). Briefly: OGTT in Streptozotocin (STZ)-treated DIO mice. The class given is in vivo, mouse. As to conditions: for Glucose AUC (% of vehicle): male STZ mice, OGTT (2 g/kg) 16 hours post injection. Here is the method: STZ-treated mouse model is a model of early diabetes. Five to six months old male DIO mice (C57BL/6) from Taconic Biosciences are used in this study. Animals are individually housed in a temperature-controlled (24° C.) facility with a 12 hour light/dark cycle (lights on 6:00), and free access to food and water. After two weeks acclimation to the facility, mice are injected intraperitoneally with 50 mg/kg of STZ on Tuesday and Friday. Two weeks post the injection, animals with glucose levels between 180-300 mg/dL at 09:00 are selected for the OGTT study. The day before the study, animals are randomized into groups based on body weight and their glucose levels. Animals are treated with vehicle or testing articles by subcutaneous injection just prior to food removal overnight (16:00). The following morning at 08:00, 16 hours post compound injection, blood samples are taken to measure time zero glucose. Animals are given an oral dose of glucose of 2 g/kg. Glucose is measured 15, 30, 60, and 120 minutes post the oral glucose challenge. Statistics are analyzed using ANOVA with Dunnett's comparison by JMP 6. Significance is denoted at p≤0.05 vs. vehicle.

Experimental for rat GLP-1-R: Performance of the assay requires detachment of the cells from culture flasks using Enzyme Free Cell Stripper and pelleted by centrifugation at 1000 rpm for 5 minutes at room temperature. […] After 2 hours starvation, cells are treated with compound by adding 10 μl of 5× compound dilutions into the cell plates (n=2) and incubated in a 37° C., 5% CO2 incubator for 30 minutes.
cAMP concentration is measured using a HTRF cAMP assay kit (Cisbio): cAMP-d2 conjugate in cell lysis buffer (20 μl) followed by the antibody anti-cAMP-Eu^3+-Cryptate, also in cell lysis buffer (20 μl), is added to the cells of the plate.
The assay is performed with duplicated plates.

As to `CC(C)C[C@H](NC(=O)[C@H](CC(C)C)NC(=O)[C@H](Cc1c[nH]c2ccccc12)NC(=O)[C@H](CCC(=O)O)NC(=O)[C@@H](NC(=O)[C@H](Cc1ccccc1)NC(=O)[C@H](CCC(=O)O)NC(=O)[C@H](CCCCNC(=O)COCCOCCNC(=O)COCCOCCNC(=O)CC[C@H](NC(=O)CCCCCCCCCCCCCCCCC(=O)O)C(=O)O)NC(=O)[C@H](C)NC(=O)[C@H](CCCCN)NC(=O)[C@H](CCCCN)NC(=O)[C@H](CCC(=O)O)NC(=O)[C@H](CC(=O)O)NC(=O)[C@H](CC(C)C)NC(=O)[C@H](Cc1ccc(O)cc1)NC(=O)[C@H](CCCCN)NC(=O)[C@H](CO)NC(=O)[C@H](Cc1ccc(O)cc1)NC(=O)[C@H](CC(=O)O)NC(=O)[C@H](CO)NC(=O)[C@@H](NC(=O)[C@H](Cc1ccccc1)NC(=O)[C@@H](NC(=O)CNC(=O)[C@H](CCC(N)=O)NC(=O)C(C)(C)NC(=O)[C@@H](N)Cc1c[nH]cn1)[C@@H](C)O)[C@@H](C)O)C(C)C)C(=O)N[C@@H](CCC(=O)O)C(=O)NCC(=O)NCC(=O)N1CCC[C@H]1C(=O)N[C@@H](CO)C(=O)N[C@@H](CO)C(=O)NCC(N)=O` [Compound 1], at rat GLP-1-R, it took 26.1 nM to reach a half-maximal effect (EC50); the cAMP production entry is “increased cAMP production in a dose-dependent manner”; the Emax – broadly, the greatest response seen or fitted, relative to the assay's reference – was 112%.

In the case of `CC(C)C[C@H](NC(=O)[C@H](CC(C)C)NC(=O)[C@H](Cc1c[nH]c2ccccc12)NC(=O)[C@H](CCC(=O)O)NC(=O)[C@@H](NC(=O)[C@H](Cc1ccccc1)NC(=O)[C@H](CCC(=O)O)NC(=O)[C@H](CCCCNC(=O)COCCOCCNC(=O)COCCOCCNC(=O)CC[C@H](NC(=O)CCCCCCCCCCCCCCCCCCC(=O)O)C(=O)O)NC(=O)[C@H](C)NC(=O)[C@H](CCCCN)NC(=O)[C@H](CCCCN)NC(=O)[C@H](CCC(=O)O)NC(=O)[C@H](CC(=O)O)NC(=O)[C@H](CC(C)C)NC(=O)[C@H](Cc1ccc(O)cc1)NC(=O)[C@H](CCCCN)NC(=O)[C@H](CO)NC(=O)[C@H](Cc1ccc(O)cc1)NC(=O)[C@H](CC(=O)O)NC(=O)[C@H](CO)NC(=O)[C@@H](NC(=O)[C@H](Cc1ccccc1)NC(=O)[C@@H](NC(=O)CNC(=O)[C@H](CCC(N)=O)NC(=O)C(C)(C)NC(=O)[C@@H](N)Cc1c[nH]cn1)[C@@H](C)O)[C@@H](C)O)C(C)C)C(=O)N[C@@H](CCC(=O)O)C(=O)NCC(=O)NCC(=O)N1CCC[C@H]1C(=O)N[C@@H](CO)C(=O)N[C@@H](CO)C(=O)NCC(N)=O` [Compound 2], the EC50 – broadly, the concentration that produces a half-maximal response – at rat GLP-1-R worked out at 62 nM. For the same molecule, on rat GLP-1-R, the cAMP production result is “increased cAMP production in a dose-dependent manner”. The molecule also gave an Emax at rat GLP-1-R of 104%. For the same molecule, the “Glucose AUC (% of vehicle)” value with DIO mice (C57BL/6) (1 nmol/kg sc) is reported as 76* % of vehicle; in the test with DIO mice (C57BL/6) (3 nmol/kg sc), 50* % of vehicle; with DIO mice (C57BL/6) (10 nmol/kg sc) it was 39* % of vehicle; in test [1] (1 nmol/kg sc) it was 70* % of vehicle; in test [1] (3 nmol/kg sc), 48* % of vehicle; in test [1] (10 nmol/kg sc), 35* % of vehicle. In the test on DIO mice (C57BL/6) (male DIO mice, 1, 3 and 10 nmol/kg), the “glucose during the tolerance test” value is “dose-dependent decrease in glucose”. The “glucose excursion during the tolerance test” value in test [1] (male STZ mice, 1, 3 and 10 nmol/kg) was “dose dependent decrease in glucose excursion”.
